According to ChEMBL document CHEMBL1201862, “PubChem BioAssay data set” (2004):
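Tested at 5 concentrations; 48 h exposure; 96-well plates; endpoints linearly interpolated, else capped at highest concentration. At the GI50, growth is halved.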 The source made the active and inactive calls. Cut-off read from the data, not from the text of the source: active = GI50 up to about 1.1 µM and inactive = higher.

Tests used:
Assay in all cases: NCI tumour cell line growth inhibition, 48 h
[1] = test system: LOX IMVI
[2] = test system: UACC-62
[3] = test system: NCI-H226
[4] = test system: SF-295
[5] = test system: NCI-H23
[6] = test system: HOP-62
[7] = test system: SK-MEL-5
[8] = test system: CCRF-CEM
[9] = test system: UO-31
[10] = test system: HT-29
[11] = test system: TK-10
[12] = test system: 786-0
[13] = test system: HL-60
[14] = test system: SNB-75
[15] = test system: NCI-H460
[16] = test system: SR

In the case of `C/C(CC(=O)Nc1cccc([N+](=O)[O-])c1)=N\NC(=O)CC#N`, the GI50 [1] is reported as > 100 µM (inactive), the GI50 [2] is reported as > 100 µM (inactive) and the GI50 [3] is reported as > 100 µM (inactive). For the same compound, the GI50 [4] was > 100 µM (inactive), the GI50 [5] was > 100 µM (inactive) and the GI50 [6] was > 100 µM (inactive). The GI50 [7] was > 100 µM (inactive), the GI50 [8] was > 100 µM (inactive) and the GI50 [9] was > 100 µM (inactive). The GI50 [10] was > 100 µM (inactive), the GI50 [11] was > 100 µM (inactive) and the GI50 [12] was > 100 µM (inactive). The GI50 [13] was > 100 µM (inactive) and the GI50 [14] was > 100 µM (inactive).
In the case of `COC1(OC)CC2C(=O)N(Cc3ccccc3)C1C(S(=O)(=O)c1ccccc1)C2C(C)S(=O)(=O)c1ccccc1` (stereo not drawn), the GI50 [1] is reported as > 100 µM (inactive), the GI50 [2] is reported as > 100 µM (inactive) and the GI50 [15] is reported as > 100 µM (inactive). The GI50 [4] was > 100 µM (inactive), the GI50 [5] was > 100 µM (inactive) and the GI50 [6] was > 100 µM (inactive). For the same compound, the GI50 [7] was > 100 µM (inactive), the GI50 [16] was > 100 µM (inactive) and the GI50 [8] was > 100 µM (inactive). The GI50 [10] was > 100 µM (inactive), the GI50 [11] was > 100 µM (inactive) and the GI50 [12] was > 100 µM (inactive). The GI50 [13] was > 100 µM (inactive).
With `COc1ccc(-c2nc(Sc3c([N+](=O)[O-])ncn3C)n[nH]2)cc1` the GI50 [1] was 2.72 µM (inactive), the GI50 [2] was 3.08 µM (inactive) and the GI50 [15] was 8.77 µM (inactive). For the same compound, the GI50 [3] was 13.4 µM (inactive), the GI50 [4] was 3.33 µM (inactive) and the GI50 [5] was 1.77 µM (inactive). For the same compound, the GI50 [6] was 19.1 µM (inactive), the GI50 [7] was 2.65 µM (inactive) and the GI50 [16] was 3.23 µM (inactive). The GI50 [8] was 2.89 µM (inactive), the GI50 [9] was 5.13 µM (inactive) and the GI50 [10] was 2.39 µM (inactive). For the same compound, the GI50 [11] was 6.17 µM (inactive), the GI50 [12] was 3.27 µM (inactive) and the GI50 [14] was 4.92 µM (inactive).
In the case of `CC(=O)Oc1cc(Cl)c(OC(C)=O)c2c(OC(C)=O)c(C)c(O[Si](C)(C)C(C)(C)C)cc12`, the GI50 [1] is reported as 4.01 µM (inactive), the GI50 [15] is reported as 3.79 µM (inactive) and the GI50 [4] is reported as 11 µM (inactive). For the same compound, the GI50 [5] was 4.18 µM (inactive), the GI50 [6] was 19.1 µM (inactive) and the GI50 [7] was 4.41 µM (inactive). The GI50 [16] was 3.62 µM (inactive), the GI50 [8] was 2.54 µM (inactive) and the GI50 [9] was 13.5 µM (inactive). For the same compound, the GI50 [11] was 5.31 µM (inactive), the GI50 [12] was 14.9 µM (inactive) and the GI50 [13] was 2.84 µM (inactive).
`CN(c1ccccc1)c1nc(=[N+]2CCCC2)ss1.[O-][Cl+3]([O-])([O-])[O-]` was tested, and the GI50 [2] was > 100 µM (inactive), the GI50 [15] was 1.85 µM (inactive) and the GI50 [3] was > 100 µM (inactive). The GI50 [7] was > 100 µM (inactive), the GI50 [16] was 17.1 µM (inactive) and the GI50 [8] was > 100 µM (inactive). The GI50 [9] was > 100 µM (inactive), the GI50 [11] was > 100 µM (inactive) and the GI50 [12] was 6.5 µM (inactive). For the same compound, the GI50 [13] was > 100 µM (inactive) and the GI50 [14] was > 100 µM (inactive).
For `Cc1ccccc1NC(=O)C1C(=O)N(c2ccccc2C)C(=O)/C1=N\NC(N)=S` (stereo not drawn), the GI50 [1] was > 100 µM (inactive), the GI50 [2] was > 100 µM (inactive) and the GI50 [3] was > 100 µM (inactive). The GI50 [4] was > 100 µM (inactive), the GI50 [5] was > 100 µM (inactive) and the GI50 [16] was > 100 µM (inactive). The GI50 [8] was > 100 µM (inactive), the GI50 [9] was > 100 µM (inactive) and the GI50 [10] was > 100 µM (inactive). For the same compound, the GI50 [11] was > 100 µM (inactive), the GI50 [12] was > 100 µM (inactive) and the GI50 [13] was > 100 µM (inactive). For the same compound, the GI50 [14] was > 100 µM (inactive).
With `C/C(=N/Nc1ccc([N+](=O)[O-])cc1[N+](=O)[O-])C(CC(C(=O)NCc1ccccc1)/C(C)=N\Nc1ccc([N+](=O)[O-])cc1[N+](=O)[O-])C(=O)NCc1ccccc1` (stereo not drawn) the GI50 [2] was 11.7 µM (inactive), the GI50 [15] was 5.51 µM (inactive) and the GI50 [3] was 11.2 µM (inactive). The GI50 [4] was 5.89 µM (inactive), the GI50 [5] was 13.3 µM (inactive) and the GI50 [6] was 3.88 µM (inactive). The GI50 [16] was 9.1 µM (inactive), the GI50 [9] was 2.39 µM (inactive) and the GI50 [10] was 6.14 µM (inactive). The GI50 [12] was 3.24 µM (inactive), the GI50 [13] was < 0.01 µM (active) and the GI50 [14] was 2.96 µM (inactive).
For `O=C(Cn1ccnc1[N+](=O)[O-])c1ccc(F)cc1`, the GI50 [1] was > 100 µM (inactive), the GI50 [2] was > 100 µM (inactive) and the GI50 [15] was > 100 µM (inactive). For the same compound, the GI50 [3] was > 100 µM (inactive), the GI50 [4] was > 100 µM (inactive) and the GI50 [5] was > 100 µM (inactive). For the same compound, the GI50 [6] was > 100 µM (inactive), the GI50 [7] was > 100 µM (inactive) and the GI50 [8] was > 100 µM (inactive). For the same compound, the GI50 [9] was > 100 µM (inactive), the GI50 [10] was > 100 µM (inactive) and the GI50 [11] was > 100 µM (inactive). The GI50 [12] was > 100 µM (inactive), the GI50 [13] was > 100 µM (inactive) and the GI50 [14] was > 100 µM (inactive).
`CC(=O)c1c2c(cc3c1CC1(C3)Cc3cc4c(c(C(=O)O)c3C1)CCC4)CCC2` (stereo not drawn) was tested, and the GI50 [1] was 32.4 µM (inactive), the GI50 [2] was 28.6 µM (inactive) and the GI50 [15] was 32 µM (inactive). The GI50 [4] was 38.9 µM (inactive), the GI50 [5] was 26.2 µM (inactive) and the GI50 [6] was 36.5 µM (inactive). The GI50 [7] was 35.7 µM (inactive), the GI50 [16] was 25.2 µM (inactive) and the GI50 [8] was 27.7 µM (inactive). The GI50 [9] was 26.9 µM (inactive), the GI50 [10] was 44.5 µM (inactive) and the GI50 [11] was 42.3 µM (inactive). The GI50 [12] was 47.2 µM (inactive), the GI50 [13] was 16.7 µM (inactive) and the GI50 [14] was 69.8 µM (inactive).
With `COC(=O)C1(c2ccc(OC)cc2)NC(c2ccccc2)C2C(=O)N(c3ccc(OC)cc3)C(=O)C21` (stereo not drawn) the GI50 [1] was > 100 µM (inactive), the GI50 [2] was > 100 µM (inactive) and the GI50 [15] was > 100 µM (inactive). For the same compound, the GI50 [4] was > 100 µM (inactive), the GI50 [5] was > 100 µM (inactive) and the GI50 [7] was > 100 µM (inactive). For the same compound, the GI50 [8] was > 100 µM (inactive), the GI50 [9] was > 100 µM (inactive) and the GI50 [10] was > 100 µM (inactive). For the same compound, the GI50 [11] was > 100 µM (inactive), the GI50 [12] was > 100 µM (inactive) and the GI50 [13] was > 100 µM (inactive). The GI50 [14] was > 100 µM (inactive).
